Read-outs that look alike come from different tables or passages of the source. Values belong to the molecule of their own block, whether it stands above or below them.
Experiments:
E1p-ec [1] = biological target: T1, E1p-ec (Escherichia coli, UniProt P0AFG8); assay: CD titration of E1p-ec by acetylphosphinate; format: binding; settings: for Kd: read-out: Kd,AcPhi
E1p-ec [2] = biological target: T1, E1p-ec; settings: read-out: Kd,AcPhi; E1p-ec with ThDP; cited from earlier work
E1p-ec [3] = biological target: T1, E1p-ec; settings: read-out: Ki,AcPhi, reversible tight-binding inhibitor; cited from earlier work
E1p-h [4] = biological target: T2, E1p-h (Homo sapiens, UniProt P08559+P11177); settings: read-out: Ki,AcPhi; cited from earlier work
T2 sequence (P08559 30-390): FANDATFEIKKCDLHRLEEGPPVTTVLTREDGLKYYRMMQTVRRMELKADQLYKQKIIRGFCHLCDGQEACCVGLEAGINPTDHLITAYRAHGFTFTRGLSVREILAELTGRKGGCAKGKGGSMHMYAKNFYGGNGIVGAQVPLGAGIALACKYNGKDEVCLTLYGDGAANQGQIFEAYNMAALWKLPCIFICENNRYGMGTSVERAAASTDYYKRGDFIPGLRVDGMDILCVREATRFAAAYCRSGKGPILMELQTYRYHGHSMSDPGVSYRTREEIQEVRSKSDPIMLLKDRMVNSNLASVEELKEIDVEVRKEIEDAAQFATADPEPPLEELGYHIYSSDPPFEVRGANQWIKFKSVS
T2 sequence (P11177 31-359): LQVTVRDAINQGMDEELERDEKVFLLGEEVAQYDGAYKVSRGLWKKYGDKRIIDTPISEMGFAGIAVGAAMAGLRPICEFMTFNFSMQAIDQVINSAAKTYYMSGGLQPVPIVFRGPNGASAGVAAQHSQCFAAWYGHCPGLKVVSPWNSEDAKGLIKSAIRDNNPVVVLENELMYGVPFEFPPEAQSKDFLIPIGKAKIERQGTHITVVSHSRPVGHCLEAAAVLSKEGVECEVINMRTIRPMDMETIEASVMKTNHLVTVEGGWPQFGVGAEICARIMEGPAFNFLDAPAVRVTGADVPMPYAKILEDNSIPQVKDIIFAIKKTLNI

E1p-h [5] = biological target: T2, E1p-h; assay: CD titration of E1p-h by acetylphosphinate; format: binding; settings: read-out: Kd,AcPhi
DXPS = DXPS (Escherichia coli, UniProt P77488); assay: CD titration of apo-DXPS with ThTTDP; format: binding; settings: for Kd: read-out: Kd,ThTTDP, CD titration, CD331
[6] = UV spectroscopic determination of the pKa for N1-protonated bacimethrin; format: physicochemical; settings: aqueous triple buffer
[7] = in the presence of 10 µM MeOThDP

DXPS, sequence (P77488 whole entry): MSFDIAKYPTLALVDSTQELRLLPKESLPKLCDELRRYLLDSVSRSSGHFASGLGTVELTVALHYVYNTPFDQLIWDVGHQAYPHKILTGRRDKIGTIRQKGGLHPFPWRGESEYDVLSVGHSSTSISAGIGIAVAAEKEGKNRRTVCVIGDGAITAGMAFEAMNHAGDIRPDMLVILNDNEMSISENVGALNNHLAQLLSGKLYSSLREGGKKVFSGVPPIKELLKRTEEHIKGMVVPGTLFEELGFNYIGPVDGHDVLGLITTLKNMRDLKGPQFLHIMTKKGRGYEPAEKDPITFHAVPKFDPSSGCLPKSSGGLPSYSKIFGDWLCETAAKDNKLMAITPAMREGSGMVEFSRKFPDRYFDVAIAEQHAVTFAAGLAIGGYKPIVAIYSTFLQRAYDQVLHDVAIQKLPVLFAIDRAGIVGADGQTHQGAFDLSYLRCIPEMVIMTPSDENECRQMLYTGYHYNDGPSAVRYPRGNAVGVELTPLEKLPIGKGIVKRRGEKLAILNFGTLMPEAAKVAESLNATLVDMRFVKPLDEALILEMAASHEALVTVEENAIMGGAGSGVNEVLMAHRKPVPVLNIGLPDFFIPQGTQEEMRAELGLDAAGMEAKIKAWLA
T1 sequence (P0AFG8 2-887 limits assumed): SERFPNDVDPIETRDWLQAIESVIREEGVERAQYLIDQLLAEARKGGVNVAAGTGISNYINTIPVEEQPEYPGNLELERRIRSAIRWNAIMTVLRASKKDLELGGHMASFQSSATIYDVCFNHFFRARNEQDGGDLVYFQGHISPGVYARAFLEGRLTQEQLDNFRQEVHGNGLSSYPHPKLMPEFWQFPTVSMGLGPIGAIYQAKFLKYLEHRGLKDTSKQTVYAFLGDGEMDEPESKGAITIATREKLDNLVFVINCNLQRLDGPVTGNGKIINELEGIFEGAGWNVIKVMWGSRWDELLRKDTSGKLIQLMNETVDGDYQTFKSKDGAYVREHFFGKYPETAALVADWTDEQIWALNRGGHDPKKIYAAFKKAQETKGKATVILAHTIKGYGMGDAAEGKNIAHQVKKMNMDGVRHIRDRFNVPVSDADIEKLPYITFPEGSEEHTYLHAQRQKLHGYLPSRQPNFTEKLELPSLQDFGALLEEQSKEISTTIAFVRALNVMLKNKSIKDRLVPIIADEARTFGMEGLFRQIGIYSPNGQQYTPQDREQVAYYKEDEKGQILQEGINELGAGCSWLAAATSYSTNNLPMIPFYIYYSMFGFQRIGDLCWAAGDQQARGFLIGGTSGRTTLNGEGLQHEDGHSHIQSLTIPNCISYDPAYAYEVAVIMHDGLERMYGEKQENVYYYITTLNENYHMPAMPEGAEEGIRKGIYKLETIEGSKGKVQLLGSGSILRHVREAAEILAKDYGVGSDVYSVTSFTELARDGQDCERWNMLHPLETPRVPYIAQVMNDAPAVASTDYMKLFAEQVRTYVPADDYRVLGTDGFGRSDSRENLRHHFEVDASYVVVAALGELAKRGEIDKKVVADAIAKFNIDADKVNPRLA

Structure (SMILES): CC(=O)[PH](=O)[O-].[Na+] [AcPhi, acetylphosphinic acid sodium salt]
- [AcPhi]/[E1p-ec] molar ratio at maximal CD intensity (E1p-ec [1]; E1p-ec complexed with ThDP): 1/1
- Kd (E1p-ec [1]; E1p-ec complexed with 0.20 mM MeOThDP, CD303): 1880 nM
- Kd (E1p-ec [1]; E1p-ec complexed with 0.20 mM ThDP, CD319): 36 nM
- Kd (E1p-ec [2]): 62 nM
- Ki (E1p-ec [3]): 760 nM
- Ki (E1p-h [4]): 14 nM
- Kd (E1p-h [5]; E1p-h complexed with MeOThDP): 1360 nM
- Kd (E1p-h [5]; E1p-h complexed with ThDP, unpublished data): 43 nM

Structure (SMILES): Cc1ncc(Cn2c(C)c(CCOP(=O)(O)OP(=O)(O)O)sc2=S)c(N)n1 [ThTTDP, Thiamin 2-thiothiazolone diphosphate]
- [ThTTDP]/[DXPS active centers] molar ratio at saturation (DXPS; [7]): 2.6
- [ThTTDP]/[DXPS active centers] molar ratio at saturation (DXPS; no MeOThDP): 1.26
- Kd (DXPS; [7]): 600 ± 140 nM
- Kd (DXPS; no MeOThDP): 390 ± 100 nM

- pKa [6]: 5.32 ± 0.03
Structure (SMILES): COc1ncc(CO)c(N)n1 [bacimethrin, 4-amino-5-hydroxymethyl-2-methoxypyrimidine]
